“And” between values parts separate entries of the source, which are not always exact repeats. Equal values may be shown once.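 Cultured in 96-well plates, cells were exposed to test compound for 48 hours across five concentrations. Abbreviation: GI50, concentration required for 50% inhibition of growth. Definition used: TGI = concentration required for complete inhibition of growth.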
How the values were obtained:
Experiment in all cases: NCI-60 cell line screen, 48 h
MCF7 breast = system: MCF7 breast
MDA-N = system: MDA-N
HOP-92 NSCLC = system: HOP-92 NSCLC
HCC-2998 colon = system: HCC-2998 colon
786-0 renal = system: 786-0 renal
U251 CNS = system: U251 CNS
CCRF-CEM leukemia = system: CCRF-CEM leukemia
OVCAR-4 ovarian = system: OVCAR-4 ovarian
SN12C renal = system: SN12C renal
IGROV1 ovarian = system: IGROV1 ovarian
LOX IMVI melanoma = system: LOX IMVI melanoma
DU-145 prostate = system: DU-145 prostate
UACC-62 melanoma = system: UACC-62 melanoma
HS 578T breast = system: HS 578T breast
A498 renal = system: A498 renal
K-562 leukemia = system: K-562 leukemia
UO-31 renal = system: UO-31 renal
A549 NSCLC = system: A549 NSCLC
RPMI-8226 leukemia = system: RPMI-8226 leukemia
NCI/ADR-RES ovarian = system: NCI/ADR-RES ovarian
OVCAR-3 ovarian = system: OVCAR-3 ovarian
HT29 colon = system: HT29 colon
OVCAR-5 ovarian = system: OVCAR-5 ovarian
SF-295 CNS = system: SF-295 CNS
NCI-H226 lung = system: NCI-H226 lung
UACC-257 melanoma = system: UACC-257 melanoma
TK-10 renal = system: TK-10 renal
NCI-H522 lung = system: NCI-H522 lung
SR leukemia = system: SR leukemia
HCT-15 colon = system: HCT-15 colon
EKVX NSCLC = system: EKVX NSCLC
M14 melanoma = system: M14 melanoma
MOLT-4 leukemia = system: MOLT-4 leukemia
RXF 393 renal = system: RXF 393 renal
SK-MEL-28 melanoma = system: SK-MEL-28 melanoma
NCI-H23 lung = system: NCI-H23 lung
PC-3 prostate = system: PC-3 prostate
HCT-116 colon = system: HCT-116 colon
SF-539 CNS = system: SF-539 CNS
CAKI-1 renal = system: CAKI-1 renal
SNB-19 CNS = system: SNB-19 CNS
BT-549 breast = system: BT-549 breast
HOP-62 NSCLC = system: HOP-62 NSCLC
COLO 205 colon = system: COLO 205 colon
SF-268 CNS = system: SF-268 CNS
T-47D breast = system: T-47D breast
OVCAR-8 ovarian = system: OVCAR-8 ovarian
HL-60(TB) leukemia = system: HL-60(TB) leukemia
MDA-MB-435 = system: MDA-MB-435
NCI-H460 lung = system: NCI-H460 lung
SK-MEL-2 melanoma = system: SK-MEL-2 melanoma
SNB-75 CNS = system: SNB-75 CNS
SK-OV-3 ovarian = system: SK-OV-3 ovarian
KM12 colon = system: KM12 colon
MALME-3M melanoma = system: MALME-3M melanoma
ACHN renal = system: ACHN renal
MDA-MB-231 breast = system: MDA-MB-231 breast
SW-620 colon = system: SW-620 colon
SK-MEL-5 melanoma = system: SK-MEL-5 melanoma

CC1=CC(C)C(C)N(CCNS(=O)(=O)c2ccc(C)cc2)c2ccccc21 (stereo unspecified)
TGI (MCF7 breast): 19.8 µM | TGI (MDA-N): 18.8 µM | TGI (HOP-92 NSCLC): 36.1 µM | TGI (HCC-2998 colon): 30.2 µM | TGI (786-0 renal): 20.8 µM | TGI (U251 CNS): 31.7 µM | TGI (CCRF-CEM leukemia): 25.6 µM | TGI (OVCAR-4 ovarian): 22.3 µM | TGI (SN12C renal): 17.1 µM | TGI (IGROV1 ovarian): 23.4 µM | TGI (LOX IMVI melanoma): 17 µM | TGI (DU-145 prostate): 24.7 µM | TGI (UACC-62 melanoma): 17.2 µM | TGI (HS 578T breast): 20.7 µM | TGI (A498 renal): 19.2 µM | TGI (K-562 leukemia): 27.5 µM | TGI (UO-31 renal): > 31.6 µM | TGI (A549 NSCLC): > 31.6 µM | TGI (RPMI-8226 leukemia): 22.3 µM | TGI (NCI/ADR-RES ovarian): 29.5 µM | TGI (OVCAR-3 ovarian): 17.1 µM | TGI (HT29 colon): 17.4 µM | TGI (OVCAR-5 ovarian): 31.1 µM | TGI (SF-295 CNS): 19.5 µM | TGI (NCI-H226 lung): 17.8 µM | TGI (UACC-257 melanoma): 34.2 µM | TGI (TK-10 renal): > 82.8 µM | TGI (NCI-H522 lung): 61.1 µM | TGI (SR leukemia): > 31.6 µM | TGI (HCT-15 colon): > 31.6 µM | TGI (EKVX NSCLC): > 31.6 µM | TGI (M14 melanoma): 17.5 µM | TGI (MOLT-4 leukemia): 23.5 µM | TGI (RXF 393 renal): 17.7 µM | TGI (SK-MEL-28 melanoma): 17.9 µM | TGI (NCI-H23 lung): 26.9 µM | TGI (PC-3 prostate): 30.5 µM | TGI (HCT-116 colon): 17.7 µM | TGI (SF-539 CNS): 18.1 µM | TGI (CAKI-1 renal): > 31.6 µM | TGI (SNB-19 CNS): > 31.6 µM | TGI (BT-549 breast): 31.7 µM | TGI (HOP-62 NSCLC): 27 µM | TGI (COLO 205 colon): 17.3 µM | TGI (SF-268 CNS): 19.6 µM | TGI (T-47D breast): 22.3 µM | TGI (OVCAR-8 ovarian): 24 µM | TGI (HL-60(TB) leukemia): 22.8 µM | TGI (MDA-MB-435): 18.9 µM | TGI (NCI-H460 lung): 19.2 µM | TGI (SK-MEL-2 melanoma): 18 µM | TGI (SNB-75 CNS): 23.4 µM | TGI (SK-OV-3 ovarian): > 100 µM | TGI (KM12 colon): 37.3 µM | TGI (MALME-3M melanoma): 23 µM | TGI (ACHN renal): 29.2 µM | TGI (MDA-MB-231 breast): 24.2 µM

Cc1nc2ccc(NC3OC(CO)C(O)C(O)C3O)cc2c(=O)n1-c1ccccc1 (stereo unspecified)
TGI (MCF7 breast): > 100 µM | TGI (MDA-N): > 100 µM | TGI (HCC-2998 colon): > 100 µM | TGI (786-0 renal): > 100 µM | TGI (U251 CNS): > 100 µM | TGI (OVCAR-4 ovarian): > 100 µM | TGI (SN12C renal): > 100 µM | TGI (IGROV1 ovarian): > 100 µM | TGI (SW-620 colon): > 100 µM | TGI (LOX IMVI melanoma): > 100 µM | TGI (DU-145 prostate): > 100 µM | TGI (UACC-62 melanoma): > 100 µM | TGI (HS 578T breast): > 100 µM | TGI (A498 renal): > 100 µM | TGI (K-562 leukemia): > 100 µM | TGI (SK-MEL-5 melanoma): > 100 µM | TGI (UO-31 renal): > 100 µM | TGI (RPMI-8226 leukemia): > 100 µM | TGI (NCI/ADR-RES ovarian): > 100 µM | TGI (OVCAR-3 ovarian): > 100 µM | TGI (HT29 colon): > 100 µM | TGI (OVCAR-5 ovarian): > 100 µM | TGI (SF-295 CNS): > 100 µM | TGI (NCI-H226 lung): > 100 µM | TGI (UACC-257 melanoma): > 100 µM | TGI (TK-10 renal): > 100 µM | TGI (NCI-H522 lung): > 100 µM | GI50 (SR leukemia): 11.1 µM and > 100 µM | TGI (SR leukemia): > 100 µM | TGI (HCT-15 colon): > 100 µM | TGI (EKVX NSCLC): > 100 µM | TGI (MOLT-4 leukemia): > 100 µM | TGI (RXF 393 renal): > 100 µM | TGI (SK-MEL-28 melanoma): > 100 µM | TGI (NCI-H23 lung): > 100 µM | TGI (PC-3 prostate): > 100 µM | TGI (HCT-116 colon): > 100 µM | TGI (CAKI-1 renal): > 100 µM | TGI (SNB-19 CNS): > 100 µM | TGI (BT-549 breast): > 100 µM | TGI (HOP-62 NSCLC): > 100 µM | TGI (COLO 205 colon): > 100 µM | TGI (SF-268 CNS): > 100 µM | TGI (T-47D breast): > 100 µM | TGI (OVCAR-8 ovarian): > 100 µM | TGI (HL-60(TB) leukemia): > 100 µM | TGI (MDA-MB-435): > 100 µM | TGI (NCI-H460 lung): > 100 µM | TGI (SK-MEL-2 melanoma): > 100 µM | TGI (SNB-75 CNS): > 100 µM | TGI (KM12 colon): > 100 µM | TGI (MALME-3M melanoma): > 100 µM | TGI (ACHN renal): > 100 µM | TGI (MDA-MB-231 breast): > 100 µM

Reference: PubChem BioAssay (NCI)
